Literature values in patent publication US6461591B1, “Medical aerosol formulations” (Jago Research AG, priority 1997, dated 2002).

Details: at 20° C.

vapour pressure	density	SMILES
about 6 bar		FCC(F)(F)F [HFA 134a, 1,1,1,2-tetrafluoroethane]
about 4.2 bar	about 1.4 mg/ml	FC(C(F)(F)F)C(F)(F)F [HFA 227, 1,1,1,2,3,3,3-heptafluoropropane]
